Counter-ions that a name gives are not always drawn.
What was measured:
Format in all cases: physicochemical
[1] = HPLC DHE and specific impurity analysis of formulations O and P on storage; details: 0 Time
Experimental: (§1) The examples herein describe analysis of formulations comprising DHE, and analysis of impurity content. Unless specifically indicated otherwise, analysis was carried out by HPLC according to the parameters in Tables 2-4.
(§2) Mobile Phase A in Tables 3 and 4 contains 2.75 g of sodium 1-heptane sulfonate in 1000 mL Purified Water, pH adjusted to 2.0 with o-phosphoric acid. Mobile Phase B in Tables 3 and 4 contains 200 mL of Mobile Phase A mixed with 800 mL of acetonitrile.
The formulation of Table 11 (“P”) was prepared for use in canine studies. An additional formulation was prepared (“O”), replacing DMSO of formula P with an equal amount of propylene glycol.

[2] = 5 mg/mL DHE mesylate stability in solvents suitable for parenteral injection (HPLC); design: Total Impurities Initial: unit not given here; details: for DHE (mg/mL) After 1 Week / Total Impurities After 1 Week: 1 week 40° C. sealed vial
Experimental: as §1, §2
Solvents that are suitable for parenteral injections were selected, and solutions of 5 mg/mL DHE mesylate in each (Table 5) were stored at 40° C. in sealed vials. Following 1 week of storage, the remaining amount of DHE was determined by HPLC, indicating solvents compatible with stable DHE storage.

[3] = Stability of formulations L, M, N at accelerated conditions (40° C., sealed vials; HPLC); details: Initial
Experimental: as §1, §2
Additional formulations “L”, “M”, and “N” were prepared according to Table 9 and analyzed for the concentration of DHE and impurities following one day in sealed vials at 40° C. Specific impurities were analyzed after storage in sealed vials after one and two weeks at 40° C. (Table 10).

[4] = HPLC analysis of formulation J after one day of storage at room temperature; details: API sample as comparison
Experimental: as §1, §2
After one day of storage at room temperature, formulation J was analyzed for DHE and impurities, as shown in the last two rows of Table 8. Testing for specific impurities relative to a sample of API (DHE mesylate) yielded the results of Table 9.

[5] = Solubility of DHE in solvents (observation); details: in DMSO, benzyl alcohol, ethanol, propylene glycol, and captisol
From the text: Based on this discovery and the solubility and stability data generated above for various solvents, preservatives, and antioxidants, additional stable formulations are included as non-limiting examples in Table 15. Prophetic formulations are included as non-limiting examples in Tables 16 and 17.

## CN1C[C@H](C(=O)N[C@]2(C)O[C@@]3(O)[C@@H]4CCCN4C(=O)[C@H](Cc4ccccc4)N3C2=O)C[C@@H]2c3cccc4[nH]cc(c34)C[C@H]21 [DHE Mesylate, ergotaman-3′,6′,19-trione, 9,10-dihydro-12′-hydroxy-2′-methyl-5′-(phenylmethyl)-, (5′α)-, monomethane-sulfonate]
[1]
  % Total Impurities: 0.2%
  impurity peak, RRT 0.87: 0
  impurity peak, RRT 0.92: 0.1
  impurity peak, RRT 1.21 (Imp-B): 0.1
[2]; 5 mg/mL solution in 15% solution of Kollidon 30
  DHE (mg/mL) Initial: 1.7 mg/mL
[2]; 5 mg/mL solution in Alcohol, USP
  DHE (mg/mL) Initial: 5 mg/mL
[2]; 5 mg/mL solution in Benzyl Alcohol
  DHE (mg/mL) Initial: 4.9 mg/mL
[2]; 5 mg/mL solution in DMSO
  DHE (mg/mL) Initial: 5.1 mg/mL
[2]; 5 mg/mL solution in Glycerin, USP
  DHE (mg/mL) Initial: 1.3 mg/mL
[2]; 5 mg/mL solution in Glycerin:Ethanol (1:1)
  DHE (mg/mL) Initial: 5.1 mg/mL
[2]; 5 mg/mL solution in N,N Dimethyl Acetamide
  DHE (mg/mL) Initial: 5.1 mg/mL
[2]; 5 mg/mL solution in N-methyl pyrrolidone
  DHE (mg/mL) Initial: 5.1 mg/mL
[2]; 5 mg/mL solution in PEG 200
  DHE (mg/mL) Initial: 4.3 mg/mL
[2]; 5 mg/mL solution in Propylene Glycol
  DHE (mg/mL) Initial: 4.8 mg/mL
[2]; 5 mg/mL solution in Purified water
  DHE (mg/mL) Initial: 4.1 mg/mL
[2]; 15% solution of Kollidon 30
  DHE (mg/mL) After 1 Week: 3.7 mg/mL
  Total Impurities After 1 Week: 9.95
  Total Impurities Initial: 0.24
[2]; Alcohol, USP
  DHE (mg/mL) After 1 Week: 5 mg/mL
  Total Impurities After 1 Week: 0.38
  Total Impurities Initial: 0.24
[2]; Benzyl Alcohol
  DHE (mg/mL) After 1 Week: 4.2 mg/mL
  Total Impurities After 1 Week: 2.51
  Total Impurities Initial: 9.58
[2]; DMSO
  DHE (mg/mL) After 1 Week: 5 mg/mL
  Total Impurities After 1 Week: 0.47
  Total Impurities Initial: 0.26
[2]; Glycerin, USP
  DHE (mg/mL) After 1 Week: 6 mg/mL
  Total Impurities After 1 Week: 0.33
  Total Impurities Initial: 0.21
[2]; Glycerin:Ethanol (1:1)
  DHE (mg/mL) After 1 Week: 5.1 mg/mL
  Total Impurities After 1 Week: 0.4
  Total Impurities Initial: 0.28
[2]; N,N Dimethyl Acetamide
  DHE (mg/mL) After 1 Week: 5.4 mg/mL
  Total Impurities After 1 Week: 0.8
  Total Impurities Initial: 0.13
[2]; N-methyl pyrrolidone
  DHE (mg/mL) After 1 Week: 4.8 mg/mL
  Total Impurities After 1 Week: 1.14
  Total Impurities Initial: 0.33
[2]; PEG 200
  DHE (mg/mL) After 1 Week: 4.9 mg/mL
  Total Impurities After 1 Week: 1.36
  Total Impurities Initial: 0.25
[2]; Propylene Glycol
  DHE (mg/mL) After 1 Week: 5.1 mg/mL
  Total Impurities After 1 Week: 0.42
  Total Impurities Initial: 0.26
[2]; Purified water
  DHE (mg/mL) After 1 Week: 4.4 mg/mL
  Total Impurities After 1 Week: 3.5
  Total Impurities Initial: 0.24
[3]
  % Total Impurities: 0.2%
  impurity peak, RRT 0.87: 0
  impurity peak, RRT 0.92: 0.1
  impurity peak, RRT 1.22 (Impurity B): 0.1
[4]
  Total Impurities following 1 day of storage: 0.19
  impurity peak, RRT 0.75: 0.03
  impurity peak, RRT 0.84 (Imp-C): 0.02
  impurity peak, RRT 0.9: 0.03
  impurity peak, RRT 1.24: 0.11

## CN1C[C@H](C(=O)N[C@]2(C)O[C@@]3(O)[C@@H]4CCCN4C(=O)[C@H](Cc4ccccc4)N3C2=O)C[C@@H]2c3cccc4[nH]cc(c34)C[C@H]21 [DHE, (5′α)-9,10-dihydro-12′-hydroxy-2′-methyl-5′-(phenylmethyl)-ergotaman-3′,6′,18-trione]
[5]
  solubility (observation in words): highly soluble
